Holding throughout (test): NCI anticancer screen, dose series, 48 h
The subject of test [1] is SF-539 CNS.
The subject of test [2] is HCC-2998 colon.
Test [3] has as its system EKVX NSCLC.
For test [4], the system named is HS 578T breast.
The test system of test [5] is UO-31 renal.
For test [6], the system named is M14 melanoma.
The subject of test [7] is SK-MEL-5 melanoma.
The test system of test [8] is SNB-75 CNS.
For test [9], the system named is NCI-H23 lung.
Test [10] relates to OVCAR-5 ovarian.

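These data come from cells grown in 96-well plates and exposed to compound for 48 hours at five concentrations. The concentration for 50% growth inhibition is given as GI50. TGI: concentration producing complete growth inhibition.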 Where only a bound is given, the exact number is not on record here.

Consider `CCOC(=O)[C@@H](Cc1ccc(CCl)cc1)NC(C)=O`, for which the TGI in test [1] came to 36.4 µM; in test [2], 40.4 µM; in [3], 54.9 µM; in [4], 60.8 µM; in test [5] it was 36.4 µM; in test [6] it was 89.3 µM. The TGI in [7] turned out to be 31.5 µM; in test [8] it was 59 µM; in [9], 68.3 µM; in test [10], 44.2 µM.

In the case of `C[C@H]1[C@H](C)CC[C@]2(C(=O)OC3OC(CO)C(O)C(O)C3O)CC[C@]3(C)C(=CC[C@@H]4[C@@]5(C)C[C@@H](O)[C@@H]6OC(=O)c7cc(O)c(O)c(O)c7-c7c(cc(O)c(O)c7O)C(=O)OC[C@@]6(CO)[C@@H]5CC[C@]43C)[C@H]12` (stereo not given in full), the TGI in [1], in test [2], in [3], in test [4], in test [5] and in test [6] was above 100 µM throughout. The TGI in [7], in test [8], in [9] and in test [10] was above 100 µM each time.

As for `NC(=O)C1CCN(Cc2c(Cl)c(Cl)c(CN3CCC(C(N)=O)CC3)c(Cl)c2Cl)CC1`, the TGI in test [1] was 70.7 µM; in [2], above 100 µM; in [3], above 100 µM; in [4], above 100 µM; in test [5], above 100 µM; in test [6], above 100 µM. Besides, the TGI was above 100 µM in [7], 63.6 µM in test [8], above 100 µM in test [9] and above 100 µM in [10].

For `N#CCCN(CCC#N)c1ccc(C(N=Nc2ccccc2)=Nc2ccc(F)cc2)cc1`, the TGI in test [1], in test [2], in test [3], in [4], in test [5] and in test [6] was above 100 µM each time. In addition, the TGI in [7], in [8], in test [9] and in test [10] was above 100 µM throughout.

`O=C(c1ccc([N+](=O)[O-])cc1)N1CCCC1`: the TGI in [1], in test [2], in test [3], in test [4], in [5] and in [6] was above 100 µM each time. The TGI in test [7], in [8], in [9] and in test [10] was above 100 µM each time.

For `CC(C)=C/C(CC(O)(C(F)(F)F)C(F)(F)F)=N\O`, the TGI in test [1], in [2], in [3], in test [4], in [5] and in test [6] was above 100 µM in each case. For the same compound, the TGI in test [7], in [8], in [9] and in [10] was above 100 µM in each case.

Regarding `C/C(=C\CSCC(N)C(=O)O)CC/C=C(\C)CNc1ccccc1` (stereo not given), the TGI in test [1], in test [2], in test [3], in [4], in test [5] and in [6] was above 100 µM throughout. Moreover, the TGI in [7], in test [8], in test [9] and in test [10] was above 100 µM throughout.

On to `O=C1c2cc3c(cc2CC12Cc1ccc4c(c1C2=O)CCC4)CCC3` (stereo not given), for which the TGI in test [1], in test [2], in test [3], in test [4], in [5] and in test [6] was above 100 µM throughout. Moreover, the TGI in [7], in [8], in test [9] and in test [10] was above 100 µM in each case.

On to `CCc1nc2c(c(N(C)C)c1C(=O)OC)CCc1ccccc1-2`, for which the TGI in [1] is above 100 µM; in [2], 67.5 µM; in test [3], above 100 µM; in test [4], above 100 µM; in test [5] it was above 100 µM; in test [6], 74.2 µM. The TGI in test [7] was 32.9 µM; in test [8], above 100 µM; in test [9], above 100 µM; in [10] it was above 100 µM.

In the case of `CCN(CC)CCCCNc1c2ccc(Cl)cc2nc2ccc(OC)cc12`, the GI50 is 1.19 µM in test [1]; 0.78 µM in test [2]; 0.608 µM in [3]; 1.83 µM in [4]; 0.759 µM in test [5]; 1.15 µM in test [6]. In addition, the GI50 in test [7] was 1.46 µM; in test [8], 1.09 µM; in [9] it was 0.524 µM; in test [10], 0.465 µM. Further, the TGI in test [1] came out at 2.73 µM; in test [2], 2.32 µM; in test [3], 3.98 µM; in [4], 4.76 µM; in test [5] it was 3.31 µM; in [6] it was 2.58 µM. In addition, the TGI amounted to 2.9 µM in test [7], 2.39 µM in [8], 2.38 µM in test [9] and 3.33 µM in test [10].

Regarding `CCOC(=O)/C=C/CCC(C)(C)COC(C)=O`, the TGI in test [1], in test [2], in [3], in [4], in [5] and in [6] was above 10 µM throughout. For the same compound, the TGI in [7], in [8], in test [9] and in test [10] was above 10 µM each time.

`C[As+](C)(c1ccc(Br)c([N+](=O)[O-])c1)c1ccc(Br)c([N+](=O)[O-])c1.O=[N+]([O-])O`: the TGI in test [1], in [2], in test [3], in test [4], in [5] and in [6] was above 100 µM throughout. The TGI in [7] is 22 µM; in test [8], above 100 µM; in [9], above 100 µM; in test [10] it was above 100 µM.

With `CC(C)=CCc1c(O)cc2oc(-c3ccc(O)cc3O)cc(=O)c2c1O`, the TGI in test [1] was 58.7 µM; in test [2], 35.1 µM; in test [3], above 100 µM; in test [4], above 94 µM; in test [5] it was 93.9 µM; in test [6], above 77.9 µM. The TGI in test [7] turned out to be 38.7 µM; in [8], 69.1 µM; in test [9], 58.2 µM; in [10], 81.3 µM.

As to `CCN(CC)C(=S)N/N=C(/c1ccccc1)c1ccccn1`, the TGI in test [1] is 4.24 µM; in test [2] it was 37 µM; in test [3], above 56.7 µM; in test [4] it was above 100 µM; in test [5], 9.52 µM; in test [6], 0.794 µM. Further, the TGI in test [7] is 4.83 µM; in [8], 7.59 µM; in test [9], above 43.3 µM; in [10] it was 22.9 µM.

In the case of `O=C1C=CC(=O)c2c(O)c(N3CCC[C@@H]3CO)c(Cl)c(O)c21`, the TGI in [1] was 3.42 µM; in test [2], 3.49 µM; in test [3], 3.55 µM; in test [4], 4.03 µM; in test [5], 3.49 µM; in test [6], 3.2 µM. Moreover, the TGI in [7] came to 2.28 µM; in test [8] it was 3.12 µM; in [9] it was 3.55 µM; in [10], 3.08 µM.

Take `COc1cc2c(cc1OCc1ccccc1)NC(=O)[C@@H]1CCCN1C2=O`: the TGI in test [1], in test [2], in test [3], in test [4], in [5] and in test [6] was above 100 µM in each case. Also, the TGI in test [7], in test [8], in [9] and in [10] was above 100 µM throughout.

In the case of `CC1=C(C)SC(=C2Sc3c(n(C)c(=O)n(C)c3=O)S2)S1`, the TGI in [1] is 26.8 µM; in test [2], above 100 µM; in test [3] it was above 100 µM; in test [4], above 100 µM; in [5], above 100 µM; in test [6] it was above 100 µM. The TGI in [7] is above 100 µM; in [8] it was 52.3 µM; in test [9] it was above 100 µM; in test [10] it was above 100 µM.

Consider `CC1(C)C=C(/C=C2/N(S(=O)(=O)C(F)(F)F)C(/C=C3/N(S(=O)(=O)C(F)(F)F)C(C)(C#N)CC3(C)C)=CC2(C)C)N=C1/C=C1/CC(C)(C)C(=O)N1` (stereo not given), for which the TGI is 84.5 µM in test [1]; above 100 µM in test [2]; 81.2 µM in test [3]; 57.7 µM in test [4]; above 100 µM in test [5]; above 100 µM in [6]. The TGI in test [7] was 71.6 µM; in test [8] it was above 100 µM; in [9], above 100 µM; in [10], above 100 µM.

With `COc1ccc2c(c1OC)C(=O)N1C2=Cc2c(cc3c(c2OC)OCO3)CC1N(C)C` (stereo not given), the TGI in [1], in test [2], in test [3], in [4], in [5] and in [6] was above 100 µM throughout. For the same compound, the TGI in test [7], in [8], in test [9] and in test [10] was above 100 µM throughout.

`NC(=O)c1ccc[n+](C2=C([O-])c3ccccc3C(=O)/C2=N\S(=O)(=O)c2ccccc2)c1`: the TGI worked out at 32.2 µM in test [1]; 22.6 µM in test [2]; 27.8 µM in test [3]; 47.3 µM in test [4]; 27.9 µM in test [5]; 29.1 µM in [6]. Also, the TGI in test [7] came to 21.3 µM; in [8] it was 28.1 µM; in [9] it was 30.6 µM; in test [10], 33.3 µM.

On to `Cn1c(=O)cc(NNc2ccc(Cl)c(Cl)c2)[nH]c1=O`, for which the TGI was 39.7 µM in [1]; 16.6 µM in test [2]; 24.2 µM in test [3]; 56 µM in test [4]; 24.4 µM in [5]; 20.3 µM in [6]. The TGI is 19.3 µM in test [7], 48.4 µM in [8], 90.7 µM in test [9] and 31.5 µM in test [10].

Take `Clc1ccc(/C(=C/c2ccccc2)Cn2ccnc2)cc1`: the TGI is 80.9 µM in [1]; above 100 µM in [2]; above 100 µM in test [3]; above 100 µM in [4]; above 100 µM in test [5]; 65.6 µM in test [6]. The TGI in test [7] is 36.4 µM; in [8] it was above 100 µM; in [9], above 100 µM; in test [10], above 100 µM.

As for `CCC1(CC)C(=O)N(C(=O)c2cc(OC)c(OC)c(OC)c2)N(C(=O)c2cc(OC)c(OC)c(OC)c2)C1=O`, the TGI in test [1], in test [2], in [3], in [4], in test [5] and in test [6] was above 50 µM each time. Besides, the TGI in test [7], in [8], in test [9] and in test [10] was above 50 µM each time.

Take `Nc1c(N2CCOCC2)c(=O)nc2[nH]/c(=C\c3ccccc3O)c(=O)n12`: the TGI in test [1], in test [2], in [3], in [4], in test [5] and in test [6] was above 100 µM throughout. The TGI in test [7], in [8], in test [9] and in [10] was above 100 µM each time.

In the case of `NCCCCNCCCN1CCOC1=O`, the TGI in test [1], in test [2], in test [3], in test [4], in [5] and in [6] was above 100 µM in each case. The TGI in test [7], in [8], in test [9] and in [10] was above 100 µM throughout.
